Laboratory results from the NIST ThermoML archive (doi:10.1021/je0603325).

Test: molar heat capacity at constant pressure; xn = mol fraction of the nth substance listed
Settings: 101 kPa, Liquid, Small sample (50 mg) DSC

BrCCBr [1,2-dibromoethane] + CCCCCCC
molar heat capacity at constant pressure [J/K/mol]
Settings	x1 = 0.1016	x1 = 0.2016	x1 = 0.2989	x1 = 0.3977	x1 = 0.4996	x1 = 0.5991	x1 = 0.6928	x1 = 0.8022	x1 = 0.9003	x1 = 1
293.15 K	213.58	204.39	196.15	187.73	179.31	170.59	162.47	153.18	144.9	136.87
294.15 K	213.9	204.73	196.48	188.03	179.43	170.8	162.6	153.26	144.94	136.9
295.15 K	214.26	204.92	196.66	188.2	179.65	170.96	162.81	153.4	145.07	136.95
296.15 K	214.59	205.3	196.95	188.51	179.89	171.13	162.9	153.53	145.16	136.99
297.15 K	214.9	205.51	197.29	188.66	180.09	171.23	163.05	153.63	145.24	137.02
298.15 K	215.25	205.83	197.53	188.94	180.26	171.4	163.18	153.72	145.27	137.04
299.15 K	215.55	206.18	197.72	189.11	180.39	171.55	163.24	153.84	145.33	137.09
300.15 K	215.9	206.45	198	189.43	180.66	171.77	163.47	153.91	145.4	137.11
301.15 K	216.32	206.71	198.31	189.64	180.79	171.9	163.5	153.98	145.47	137.15
302.15 K	216.6	207.03	198.6	189.82	181.03	172.01	163.71	154.13	145.6	137.2
303.15 K	216.95	207.33	198.77	190.01	181.17	172.23	163.89	154.24	145.65	137.25
304.15 K	217.33	207.57	199.17	190.33	181.4	172.31	163.94	154.32	145.75	137.29
305.15 K	217.7	207.95	199.39	190.62	181.54	172.49	164.06	154.37	145.77	137.32
306.15 K	218.07	208.28	199.58	190.75	181.72	172.71	164.29	154.55	145.83	137.39
307.15 K	218.39	208.47	199.9	191.03	181.95	172.88	164.4	154.6	145.96	137.42
308.15 K	218.69	208.8	200.2	191.31	182.17	173	164.48	154.68	146.01	137.49
309.15 K	219.1	209.1	200.37	191.5	182.37	173.19	164.7	154.79	146.13	137.53
310.15 K	219.41	209.5	200.65	191.66	182.48	173.29	164.8	154.9	146.2	137.6
311.15 K	219.69	209.78	200.99	191.91	182.68	173.5	164.88	155	146.21	137.65
312.15 K	220.11	210.1	201.15	192.12	182.91	173.69	165.06	155.16	146.3	137.71
313.15 K	220.35	210.39	201.51	192.42	183.06	173.84	165.16	155.25	146.43	137.77
